Patent publication US20220062299A1, “USE OF GLUCOCORTICOID STEROIDS IN PREVENTING AND TREATING CONDITIONS OF MUSCLE WASTING, AGING AND METABOLIC DISORDER” (NORTHWESTERN UNIVERSITY, priority 2018, published 2022)

Tests used:
[1] = test system: Dysf-null mice; assay: Body weight, muscle mass, muscle function, plethysmography, echocardiography, Dysf-null mice, 32 weeks; format: in vivo, mouse; details: weekly prednisone
Protocol: (§1) Histology. Excised tissues (muscles, omental fat, heart) were placed in 10% formaldehyde (Cat #245-684; Fisher Scientific, Waltham, Mass.) for histologic processing. Seven μm sections from the center of paraffin-embedded muscles were stained with hematoxylin and eosin (H&E; cat #12013B, 1070C; Newcomer Supply, Middleton, Wis.) and Masson's trichrome (Cat #HT-15; Sigma-Aldrich; St. Louis, Mo.). Myofiber/adipocyte CSA quantitation was conducted on 400 myofibers/adipocytes per tissue per mouse. Imaging was performed using a Zeiss Axio Observer A1 microscope, using 10× and 20× (short-range) objectives. Brightfield pictures were acquired via Gryphax software (version 1.0.6.598; Jenoptik, Jena, Germany). Area quantitation was performed by means of ImageJ (Schneider et al., 2012). Sample processing, imaging and CSA quantitation were conducted blinded to treatment groups.
Muscle function, whole-body plethysmography, echocardiography. Forelimb grip strength was monitored using a meter (Cat #1027SM; Columbus Instruments, Columbus, Ohio) blinded to treatment groups. Animals performed ten pulls with 5 seconds rest on a flat surface between pulls. Immediately before sacrifice, in situ tetanic force from tibialis anterior muscle was measured using a Whole Mouse Test System (Cat #1300A; Aurora Scientific, Aurora, ON, Canada) with a 1N dual-action lever arm force transducer (3000-LR, Aurora Scientific, Aurora, ON, Canada) in anesthetized animals (0.8 I/min of 1.5% isoflurane in 100% O2). […] Time of contraction was assessed as time to max tetanic value within the 0.0-0.5 sec range of each tetanic contraction, while time of relaxation was assessed as time to 90% min tetanic value within the 0.5-0.8 sec range of every tetanus. […] Data was recorded for a total of 15 minutes broken into 3 consecutive 5-minute periods. […] Cardiac function was assessed by echocardiography, which was conducted under anesthesia (0.8 L/min of 1.5% vaporized isoflurane in 100% O2) on mice between 2 and 5 days before sacrifice. […]

[2] = test system: mdx mice; assay: Glycemia monitoring, insulin sensitivity, glucose and pyruvate tolerance tests, adipocyte histology in mdx mice; format: in vivo, mouse
Protocol: Glucose was measured in blood (first drop from tail venipuncture) or serum (5 μl of 1:2 dilution) with an AimStrip Plus glucometer system (Germaine Laboratories, San Antonio, Tex.) and expressed as mg/dl values. Lactate was measured in blood (second drop from tail venipuncture) or serum (5 μl of 1:2 dilution) with a Lactate Plus reader (Nova Biomedical, Waltham, Mass.) and expressed as mM values. Fasting glycemia was measured in mice after 4 hours fasting (7 AM-11 AM). Glucose, insulin and pyruvate tolerance tests were conducted after 4 hours fasting in individual cages immediately after baseline fasting glucose monitoring. Mice were injected with either 1 g/kg glucose (#D8375-1 g; Millipore Sigma, St Louis, Mo.), or 0.5 U/kg insulin (#12585014; Thermo Fisher, Waltham, Mass.), or 2.5 g/kg pyruvate (#P5280-25 g; Millipore Sigma, St Louis, Mo.) in 200 μl intraperitoneal injections, and glucose was then monitored by tail venipuncture at 10 min, 20 min, 30 min, 60 min, 120 min after injection. All glucose and pyruvate tolerance tests were conducted blinded to treatment groups.
as §1

[3] = test system: mdx mice; assay: Dosing of metabolic and endocrine biomarkers in blood, serum and tissues, mdx mice, long-term (40 weeks) weekly prednisone; format: in vivo

`C[C@]12C=CC(=O)C=C1CC[C@@H]1[C@@H]2C(=O)C[C@@]2(C)[C@H]1CC[C@]2(O)C(=O)CO` [prednisone, Prednisone] was tested, and the body weight trend [1] was “did not induce significant changes”, the muscle mass [1] was “increased” and the “performance of limb muscles, respiratory muscles, and heart” value [1] was “improved”. The adipocyte hypertrophy ([2]; daily prednisone) was “induced adipocyte hypertrophy”, the “endpoint glucose and pyruvate tolerance tests” value ([2]; daily prednisone) was “induced glucose intolerance and pyruvate intolerance” and the glucose homeostasis ([2]; daily prednisone) was “impaired”. For the same compound, the insulin resistance ([2]; daily prednisone) was “induced insulin resistance”, the Glycemia ([2]; daily prednisone, over treatment) was “progressively increased” and the “endpoint glucose tolerance test” value ([2]; weekly prednisone) was “did not increase glucose intolerance”. For the same compound, the insulin sensitivity ([2]; weekly prednisone) was “higher” and the “ATP, NAD+, and glycogen in muscle and blood lactate” value [3] was “increase”.
